{"source": "patent US20090281054A1", "about": "“COMPOSITIONS AND METHODS COMPRISING CAPURAMYCIN ANALOGUES” (priority 2008, published 2009)", "key": {"MTB cultures": {"system": "MTB cultures", "assay": "Induction of morphological changes and bacterial disintegration", "format": "cell-based, Mycobacterium tuberculosis", "from_the_text": "Induction of morphological changes and bacterial disintegration. […] Tubercle bacilli exposed to CM analogues were typically club-shaped, with deeply stained swollen ends (see Reddy et al. Antimicrob. Agents Chemother., 2008, 52(2), 719-721)."}, "MTB in macrophages": {"system": "MTB in macrophages", "format": "cell-based, Mycobacterium tuberculosis"}, "MTB [1]": {"system": "MTB", "assay": "Activity in acidic pH (microdilution in 7H9 broth)", "format": "cell-based, Mycobacterium tuberculosis", "conditions": "pH 7.0 to 5.0", "from_the_text": "Activity in acidic pH. The pH in macrophage phagolysomes is ˜5.5. To be effective against intracellular organisms, anti-TB drugs should concentrate inside macrophages and be active in an acidic environment. The activity of SQ641 against MTB was investigated by microdilution method in 7H9 broth at different hydrogen ion concentrations."}, "MTB [2]": {"system": "MTB", "assay": "Synergy by checkerboard titration (microdilution)", "format": "cell-based, Mycobacterium tuberculosis", "method": "Synergistic activity with other anti-TB drugs against MSMG, MTB, MAB, and MAC. Synergy with other anti-mycobacterial drugs was determined in two drug combinations by checkerboard titration using a microdilution method. Fractional inhibitory concentration (FIC) is the MIC in combination divided by the MIC of individual drug. An FIC index (ΣFIC) of ≦0.5 indicates synergistic activity, ≧4.0 antagonistic activity and in between, additive effect. Synergistic activity was determined against MSMG, MTB, MAB and MAC. All the three CM analogues were tested in combination with INH, RIF, EMB and SM against MSMG. Similarly, all the three CM analogues were tested in combination with INH, EMB, SM and SQ109 against MTB. Only SQ641 was tested in combination with EMB, clarithromycin (CLA) and amikacin (AMK) against MAC."}, "[3]": {"system": "intracellular MTB (MTBp-SMT1) in J774A.1 macrophages", "assay": "Intracellular activity of SQ641-TPGS micelles", "format": "cell-based, Mycobacterium tuberculosis"}, "M. avium complex (MAC)": {"system": "M. avium complex (MAC)", "assay": "MIC by microdilution method in 7H9 broth", "format": "cell-based"}, "M. abscessus": {"system": "M. abscessus", "assay": "Synergy by checkerboard titration (microdilution)", "format": "cell-based"}, "translocase I": {"biological_target": "translocase I (Escherichia coli, UniProt P0A6W3)", "sequence (P0A6W3 whole entry)": "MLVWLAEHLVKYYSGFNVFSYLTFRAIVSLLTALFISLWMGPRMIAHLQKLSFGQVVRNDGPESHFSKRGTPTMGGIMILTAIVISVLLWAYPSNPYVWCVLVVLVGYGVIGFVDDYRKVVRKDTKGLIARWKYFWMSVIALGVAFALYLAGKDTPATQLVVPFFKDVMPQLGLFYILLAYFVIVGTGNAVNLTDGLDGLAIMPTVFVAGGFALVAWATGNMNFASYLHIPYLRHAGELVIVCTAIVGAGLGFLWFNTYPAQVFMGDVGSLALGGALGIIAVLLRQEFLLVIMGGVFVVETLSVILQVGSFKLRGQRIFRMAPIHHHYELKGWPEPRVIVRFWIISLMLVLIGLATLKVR", "assay": "IC50 against translocase I", "format": "biochemical"}, "[4]": {"system": "M. abscessus (MAB; ATCC 700869)", "assay": "MIC by microdilution method in 7H9 broth", "format": "cell-based", "conditions": "Mycobacteroides abscessus, ATCC700869; MAB 700869; read-out: MIC"}, "[5]": {"system": "MTB-pSMT1 luciferase reporter strain", "assay": "Activity against slowly replicating (hypoxic) MTB", "format": "cell-based", "conditions": "Mycobacterium tuberculosis"}, "MTB [6]": {"system": "MTB", "assay": "In vivo efficacy in mouse model of chronic TB disease (lung CFU)", "conditions": "mice treated for 3 wk, starting 3 wk after infection, gav, ip, iv", "method": "In vivo activity against MTB. In vivo efficacy of CM analogues was investigated in a mouse model of chronic TB disease (FIG. 2). Three wk after infection, mice were treated for 3 wk with the drugs by gavage (gav), intraperitoneal injection (ip), intravenous injection (iv), or intranasal (in) routes. Efficacy was analyzed by determining Colony-Forming Units (CFU) in lungs. […] Each achieved a decrease of 1-log10 lung CFU compared to the late control [LC] CFU by at least one route, which varied for each drug."}, "[7]": {"system": "M. kansaii (MKN; ATCC12478 & 35775)", "assay": "MIC by microdilution method in 7H9 broth", "format": "cell-based, M. kansasii", "conditions": "Mycobacterium kansasii, read-out: MIC"}, "MTB-H37Rv": {"system": "MTB-H37Rv", "assay": "Post-antibiotic effect (PAE)", "format": "cell-based, Mycobacterium tuberculosis", "method": "PAE of SQ641. PAE of SQ641 was determined as described (Chan et al. Antimicrob. Agents Chemother., 2004, 48(1), 340-343). At the end of incubation, suspensions were diluted 1/25, and 0.1 ml was injected into each of triplicate BACTEC vials: drug dilution was 1000-fold in the BACTEC vials. Drug carryover controls (to ascertain absence of any carryover drug) consisting of the same MTB suspension as in the test and similar drug dilutions were mixed immediately, diluted 1/25, and 0.1 ml was injected into BACTEC vials. BACTEC vials were incubated at 37° C. and read in a BACTEC TB-460 reader every 24 hr until the cumulative GI in the control reached 999. PAE was calculated from the formula PAE=T−C, where T is the time required for the drug-exposed organisms to reach a cumulative GI of 100 and C is the time required for the controls to reach a cumulative GI of 100.\nPAE determines the time required for the organisms to recover following exposure to an antimicrobial agent for a short duration. PAE activities of both SQ641 and INH, each at 4 μg/ml, were investigated with MTB-H37Rv. Following 2 hr of exposure to drugs, the PAE of INH was 17 hr as compared to 55 hr for SQ641. The PAE of SQ641 was over 3 times that of INH."}, "MTB inside macrophages": {"system": "MTB inside macrophages", "assay": "Intracellular activity of DMSO-solubilized drug in MTB infected macrophages", "format": "cell-based, Mycobacterium tuberculosis", "conditions": "for Mean RLU at Day 7: Day 0 RLU 443, Control Day 7 4251"}}, "note": "Where two headings read alike, the source gives them in different places.", "data": [{"smiles": "CCCCCCCCCC(=O)O[C@@H]1[C@H](OC)[C@@H]([C@@H](O[C@H]2OC(C(=O)N[C@H]3CCC[C@@H](C)NC3=O)=C[C@H](O)[C@@H]2O)C(N)=O)O[C@H]1n1ccc(=O)[nH]c1=O", "note": "[SQ641]", "values": [{"measurement": "Bacterial disintegration / clearance of MTB cultures", "setting": "MTB cultures; MTB cultures", "value": "rapid bacterial disintegration"}, {"measurement": "Turbidity of MTB cultures", "setting": "MTB cultures; within 2 days of exposure", "value": "marked fall in the turbidity"}, {"measurement": "RLU lower than the drug dissolved in DMSO", "setting": "MTB in macrophages", "value": "about 50%"}, {"measurement": "Mean RLU on day 7", "setting": "MTB in macrophages; SQ641 2 μg/ml, day 0 RLU 1397, Control day 7 9075", "value": 3535, "unit": "RLU"}, {"measurement": "Activity at different hydrogen ion concentrations", "setting": "MTB [1]", "value": "no loss"}, {"measurement": "Synergy with other anti-mycobacterial drugs", "setting": "MTB [2]", "value": "synergistic activity with EMB, the new diamine antitubercular SQ109, and streptomycin against MTB"}, {"measurement": "ΣFIC", "setting": "MTB [2]; SQ641 + EMB", "value": 0.156}, {"measurement": "Mean RLU at Day 7", "setting": "[3]; Expt 1, one day drug exposure, 5 μg/ml, Day 0 RLU 104, CONTROL Day 7 906", "value": 95, "unit": "RLU"}, {"measurement": "Mean RLU at Day 7", "setting": "[3]; Expt 1, one day drug exposure, 10 μg/ml, Day 0 RLU 104, CONTROL Day 7 906", "value": 64, "unit": "RLU"}, {"measurement": "Mean RLU at Day 7", "setting": "[3]; Expt 1, one day drug exposure, 20 μg/ml, Day 0 RLU 104, CONTROL Day 7 906", "value": 47, "unit": "RLU"}, {"measurement": "Mean RLU at Day 7", "setting": "[3]; Expt 2, four days drug exposure, 4 μg/ml, Day 0 RLU 205, CONTROL Day 7 491", "value": 62, "unit": "RLU"}, {"measurement": "Mean RLU at Day 7", "setting": "[3]; Expt 2, four days drug exposure, 8 μg/ml, Day 0 RLU 205, CONTROL Day 7 491", "value": 32, "unit": "RLU"}, {"measurement": "Mean RLU at Day 7", "setting": "[3]; Expt 2, four days drug exposure, 16 μg/ml, Day 0 RLU 205, CONTROL Day 7 491", "value": 17, "unit": "RLU"}, {"measurement": "Mean RLU at Day 7", "setting": "[3]; Expt 2, four days drug exposure, 32 μg/ml, Day 0 RLU 205, CONTROL Day 7 491", "value": 8, "unit": "RLU"}, {"measurement": "MIC", "setting": "M. avium complex (MAC); Mycobacterium avium, 336 h, MAC isolates, 2 wk, read-out: MIC (range)", "value": "0.125 to 2", "unit": "µg/mL"}, {"measurement": "MIC", "setting": "M. avium complex (MAC); Mycobacterium avium, MAC strain 100, read-out: MIC", "value": 2, "unit": "µg/mL"}, {"measurement": "MIC", "setting": "M. avium complex (MAC); Mycobacterium avium, MAC strain 101, read-out: MIC", "value": 0.12, "unit": "µg/mL"}, {"measurement": "MIC", "setting": "M. avium complex (MAC); Mycobacterium avium, MAC strain 104, read-out: MIC", "value": 2, "unit": "µg/mL"}, {"measurement": "MIC", "setting": "M. avium complex (MAC); Mycobacterium avium, MAC strain 109, read-out: MIC", "value": 0.12, "unit": "µg/mL"}, {"measurement": "MIC", "setting": "M. avium complex (MAC); Mycobacterium avium, MAC strain A5, read-out: MIC", "value": 0.5, "unit": "µg/mL"}, {"measurement": "MIC", "setting": "M. avium complex (MAC); Mycobacterium avium, MAC strain JSH1, read-out: MIC", "value": 2, "unit": "µg/mL"}, {"measurement": "MIC", "setting": "M. avium complex (MAC); Mycobacterium avium, MAC strain NIH C1-1, read-out: MIC", "value": 0.5, "unit": "µg/mL"}, {"measurement": "MIC", "setting": "M. avium complex (MAC); Mycobacterium avium, MAC strain NIH C1-2, read-out: MIC", "value": 0.25, "unit": "µg/mL"}, {"measurement": "MIC", "setting": "M. avium complex (MAC); Mycobacterium avium, MAC strain NIH C1-3, read-out: MIC", "value": 2, "unit": "µg/mL"}, {"measurement": "MIC", "setting": "M. avium complex (MAC); Mycobacterium avium, MAC strain NIH C1-4, read-out: MIC", "value": 0.5, "unit": "µg/mL"}, {"measurement": "MIC90", "setting": "M. avium complex (MAC); Mycobacterium avium, MAC isolates, value in square brackets, read-out: MIC90", "value": 2, "unit": "µg/mL"}, {"measurement": "MIC range", "setting": "M. avium complex (MAC); ten MAC isolates (Table 6)", "value": "0.125 to 2", "unit": "µg/mL"}, {"measurement": "MIC", "setting": "M. abscessus; Mycobacteroides abscessus, drug alone", "value": 0.5, "unit": "µg/mL"}, {"measurement": "ΣFIC", "setting": "M. abscessus; SQ641 + RFB", "value": 0.25}, {"measurement": "ΣFIC", "setting": "M. abscessus; SQ641 + SM", "value": 0.375}, {"measurement": "MIC Combination", "setting": "M. abscessus; combination SQ641 + RFB", "value": 0.062, "unit": "µg/mL"}, {"measurement": "MIC Combination", "setting": "M. abscessus; combination SQ641 + SM", "value": 0.062, "unit": "µg/mL"}, {"measurement": "IC50 against translocase I", "setting": "translocase I", "value": 0.55, "unit": "µg/mL"}, {"measurement": "MIC", "setting": "[4]", "value": 0.5, "unit": "µg/mL"}, {"measurement": "MIC", "setting": "[5]", "value": 0.5, "unit": "µg/mL"}, {"measurement": "Routes by which replication of MTB in lungs was prevented (vs early control)", "setting": "MTB [6]", "value": "all but intranasal"}, {"measurement": "MIC", "setting": "[7]; ATCC 12478 / ATCC 35775, MKN ATCC35775", "value": 0.25, "unit": "µg/mL"}, {"measurement": "MIC", "setting": "[7]; MKN ATCC12478", "value": 1, "unit": "µg/mL"}, {"measurement": "PAE (post-antibiotic effect)", "setting": "MTB-H37Rv; 4 μg/ml, 2 hr of exposure", "value": 55, "unit": "h"}, {"measurement": "PAE of SQ641 relative to INH", "setting": "MTB-H37Rv; each at 4 μg/ml", "value": "over 3 times"}, {"measurement": "Mean RLU at Day 7", "setting": "MTB inside macrophages; 1 μg/ml", "value": 1208, "unit": "RLU"}, {"measurement": "Mean RLU at Day 7", "setting": "MTB inside macrophages; 2 μg/ml", "value": 1162, "unit": "RLU"}, {"measurement": "Mean RLU at Day 7", "setting": "MTB inside macrophages; 4 μg/ml", "value": 1116, "unit": "RLU"}, {"measurement": "Mean RLU at Day 7", "setting": "MTB inside macrophages; 8 μg/ml", "value": 441, "unit": "RLU"}, {"measurement": "Mean RLU at Day 7", "setting": "MTB inside macrophages; 16 μg/ml", "value": 253, "unit": "RLU"}, {"measurement": "Mean RLU at Day 7", "setting": "MTB inside macrophages; 32 μg/ml", "value": 190, "unit": "RLU"}, {"measurement": "Intracellular activity (FIG. 1)", "setting": "MTB inside macrophages; 1× and 2× MIC", "value": "showed intracellular activities"}]}]}
